Measurements published in ChEMBL document CHEMBL3046742, “Isolation and anxiolytic activity of 3,4-bis(3,4-dimethoxyphenyl)furan-2,5-dione from the ethanolic extract of heart wood of Cedrus deodara” (2012).
Calls of active or inactive are those of the source. The rule behind the calls is not given here.

Assays:
Mus musculus [1] = experiment: Anxiolytic activity in Mus musculus Swiss albino (mouse) assessed as increase in time spent in open arms at 2 mg/kg, po administered 1 hr prior to testing measured for 5 min by plus-maze test (reference value: 23 +/- 1.63 secs); assay type: functional
Mus musculus [2] = experiment: Anxiolytic activity in Mus musculus Swiss albino (mouse) assessed as increase in time spent in light zone at 2 mg/kg, po administered 1 hr prior to testing measured for 5 min by light-dark test (reference value: 64 +/- 4.02 secs); assay type: functional
Mus musculus [3] = experiment: Anxiolytic activity in Mus musculus Swiss albino (mouse) assessed as time spent in neutral zone at 2 mg/kg, po administered 1 hr prior to testing measured for 5 min by plus-maze test (reference value: 70 +/- 5.63 secs); assay type: functional
Mus musculus [4] = experiment: Anxiolytic activity in Mus musculus Swiss albino (mouse) assessed as increase in ambulation at 2 mg/kg, po administered 45 min prior to testing measured for 5 min by open-field test relative to control; assay type: functional, organism-based; parameters: dose 2 mg/kg
Mus musculus [5] = experiment: Anxiolytic activity in Mus musculus Swiss albino (mouse) assessed as time spent in neutral zone at 10 mg/kg, po administered 1 hr prior to testing measured for 5 min by plus-maze test (reference value: 70 +/- 5.63 secs); assay type: functional
Mus musculus [6] = experiment: Anxiolytic activity in Mus musculus Swiss albino (mouse) assessed as increase in time spent in open arms at 100 mg/kg, po administered 1 hr prior to testing measured for 5 min by plus-maze test (reference value: 23 +/- 1.63 secs); assay type: functional
Mus musculus [7] = experiment: Anxiolytic activity in Mus musculus Swiss albino (mouse) assessed as increase in time spent in open arms at 10 mg/kg, po administered 1 hr prior to testing measured for 5 min by plus-maze test (reference value: 23 +/- 1.63 secs); assay type: functional
Mus musculus [8] = experiment: Anxiolytic activity in Mus musculus Swiss albino (mouse) assessed as increase in time spent in open arms at 30 mg/kg, po administered 1 hr prior to testing measured for 5 min by plus-maze test (reference value: 23 +/- 1.63 secs); assay type: functional
Mus musculus [9] = experiment: Anxiolytic activity in Mus musculus Swiss albino (mouse) assessed as decrease in immobility duration at 2 mg/kg, po administered 1 hr prior to testing measured for 5 min by light-dark test relative to control; assay type: functional, organism-based; parameters: dose 2 mg/kg
Mus musculus [10] = experiment: Anxiolytic activity in Mus musculus Swiss albino (mouse) assessed as increase in ambulation at 200 to 400 mg/kg, po administered 45 min prior to testing measured for 5 min by open-field test relative to control; assay type: functional, organism-based
Mus musculus [11] = experiment: Anxiolytic activity in Mus musculus Swiss albino (mouse) assessed as increase in time spent in light zone at 30 mg/kg, po administered 1 hr prior to testing measured for 5 min by light-dark test (reference value: 64 +/- 4.02 secs); assay type: functional
Mus musculus [12] = experiment: Anxiolytic activity in Mus musculus Swiss albino (mouse) assessed as increase in ambulation at 100 mg/kg, po administered 45 min prior to testing measured for 5 min by open-field test relative to control; assay type: functional, organism-based; parameters: dose 100 mg/kg
Mus musculus [13] = experiment: Anxiolytic activity in Mus musculus Swiss albino (mouse) assessed as increase in time spent in light zone at 10 mg/kg, po administered 1 hr prior to testing measured for 5 min by light-dark test (reference value: 64 +/- 4.02 secs); assay type: functional
Mus musculus [14] = experiment: Anxiolytic activity in Mus musculus Swiss albino (mouse) assessed as time spent in neutral zone at 30 mg/kg, po administered 1 hr prior to testing measured for 5 min by plus-maze test (reference value: 70 +/- 5.63 secs); assay type: functional
Mus musculus [15] = experiment: Anxiolytic activity in Mus musculus Swiss albino (mouse) assessed as increase in time spent in light zone at 100 mg/kg, po administered 1 hr prior to testing measured for 5 min by light-dark test (reference value: 64 +/- 4.02 secs); assay type: functional
Mus musculus [16] = experiment: Anxiolytic activity in Mus musculus Swiss albino (mouse) assessed as time spent in neutral zone at 100 mg/kg, po administered 1 hr prior to testing measured for 5 min by plus-maze test (reference value: 70 +/- 5.63 secs); assay type: functional

SMILES | Time (Mus musculus [1]) | Time (Mus musculus [2]) | Time (Mus musculus [3]) | Activity (Mus musculus [4]) | Time (Mus musculus [5]) | Time (Mus musculus [6]) | Time (Mus musculus [7]) | Time (Mus musculus [8]) | Activity (Mus musculus [9]) | Activity (Mus musculus [10]) | Time (Mus musculus [11]) | Activity (Mus musculus [12]) | Time (Mus musculus [13]) | Time (Mus musculus [14]) | Time (Mus musculus [15]) | Time (Mus musculus [16])
CN1C(=O)CN=C(c2ccccc2)c2cc(Cl)ccc21 [DIAZEPAM] | 166 s | 171 s | 32 s | Active |  |  |  |  |  |  |  |  |  |  |  | 
COc1ccc(C2=C(c3ccc(OC)c(OC)c3)C(=O)OC2=O)cc1OC |  |  |  |  | 65 s | 151 s | 66 s | 110 s | Active | inactive | 120 s | Active | 95 s | 45 s | 145 s | 29 s
